Measurements published in patent US20260315609A1, “MIXED VASOPRESSIN RECEPTOR AGONIST-ANTAGONIST FOR TREATING END-STAGE LIVER DISEASE AND COMPLICATIONS ASSOCIATED THEREOF” (FERRING B.V., priority 2022, published 2026).
Positions of bridges follow the written chain, without caps; N, C: chain ends. Residues, ends and D or L forms follow the SMILES beside them.

Key:
skin blood flow (SBF) = assay: Skin blood flow (SBF), laser Doppler, anesthetized Wistar rats, IV infusion; assay type: in vivo, rat
Protocol: This study was performed over multiple experiments using a total of 48 adult male Wistar rats. […] Compounds were infused via an IV catheter at six sequentially increasing doses.
(§1) On the day of experimentation animals were anesthetized and instrumented. A tracheostomy was performed to allow assisted respiration and three catheters were placed. Laser Doppler probes were positioned on a shaved portion of the animal's lower abdominal skin for blood-flow measurements. Ventilation was initiated, and baseline readings for the primary parameter of skin blood flow (SBF) were recorded. Readings for the secondary parameters were also recorded: (1) blood lactate concentration, (2) mean arterial pressure (MAP), and (3) blood pH. Data collection was performed continuously for SBF and MAP using NOTOCORD-hem™ (Instem), and blood samples were taken at each compound dose and immediately analyzed using an i-STAT® meter.
After the final dose administration, animals were euthanized and a final SBF measurement was recorded to detect any signal from the flow probe after the animal's heart stopped beating to control for a signal not attributed to blood flow. Animal body temperature, pulse, and ventilation adequacy were monitored throughout the procedure.

rV2 receptor = target: T1, rV2 receptor (Rattus norvegicus, UniProt Q00788); assay: Luciferase reporter gene assay, rat V2; assay type: cell-based; details: read-out: % MPE
T1 construct: expressed in transfected cells; host or cells: HEK-293 cells (ATCC), transient
T1 sequence (Q00788 whole entry): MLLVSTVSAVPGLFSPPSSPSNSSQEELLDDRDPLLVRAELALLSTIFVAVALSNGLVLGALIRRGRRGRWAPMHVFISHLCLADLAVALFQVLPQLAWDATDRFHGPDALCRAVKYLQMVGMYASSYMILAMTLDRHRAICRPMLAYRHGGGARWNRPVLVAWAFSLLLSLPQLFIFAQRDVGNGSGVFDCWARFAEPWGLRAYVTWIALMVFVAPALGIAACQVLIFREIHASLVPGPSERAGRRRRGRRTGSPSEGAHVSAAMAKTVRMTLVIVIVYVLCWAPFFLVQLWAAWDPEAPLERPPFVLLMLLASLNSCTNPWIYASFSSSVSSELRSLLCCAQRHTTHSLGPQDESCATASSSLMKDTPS
Protocol: (§2) Cell Lines. Studies were conducted with cell lines expressing rat (r) or human (h) Via, V1b, V2, or OT receptors. For the experiments with human receptors, human embryonic kidney (HEK)-flp-in cells stably expressing the lacZ-Zeocin™ fusion gene were used for expression of hV1a and hV1b. These cells were designed for use with the Flp-In™ expression vector containing the gene of interest (here hV1a or hV1b) and the Flp recombinase expression plasmid, pOG44. For hV2 and hOTR, HEK-293 cells transiently expressing hV2 were used.
(§3) Functional Cell-Based Assays.

blood lactate = assay: Blood lactate concentration, anesthetized Wistar rats, IV infusion; assay type: in vivo, rat
Protocol: This study was performed over multiple experiments using a total of 48 adult male Wistar rats. […] Compounds were infused via an IV catheter at six sequentially increasing doses. A group of vehicle-administered animals received vehicle throughout the study and data were reported from intervals timed analogously with the dose-response in compound 1-administered animals.
as §1

rOTR = target: T2, rOTR (Rattus norvegicus, UniProt P70536); assay: Luciferase reporter gene assay, rat OT; assay type: cell-based; details: read-out: % MPE
T2 construct: expressed in transfected cells
T2 sequence (P70536 1-388): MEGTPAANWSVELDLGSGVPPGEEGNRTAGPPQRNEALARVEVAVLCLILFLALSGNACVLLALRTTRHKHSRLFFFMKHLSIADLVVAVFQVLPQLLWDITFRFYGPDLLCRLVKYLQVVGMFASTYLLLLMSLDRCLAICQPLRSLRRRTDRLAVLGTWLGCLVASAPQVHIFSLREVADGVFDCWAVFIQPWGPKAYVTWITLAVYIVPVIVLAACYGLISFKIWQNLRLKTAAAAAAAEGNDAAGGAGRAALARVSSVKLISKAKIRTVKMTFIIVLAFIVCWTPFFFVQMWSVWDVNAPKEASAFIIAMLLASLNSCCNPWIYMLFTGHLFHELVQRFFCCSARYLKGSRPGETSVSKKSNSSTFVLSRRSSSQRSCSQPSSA
Protocol: as §2, §3

[1] = test system: V1a, V1b, and V2 receptors; details: cited from earlier work
[2] = test system: methionine/choline-deficient (MCD) diet rats; assay: MAP / ΔMAP in methionine/choline-deficient (MCD) diet rats; assay type: in vivo, rat; details: for Δ MAP (mean): 100 μg/kg, IA, MCD diet rats
Protocol: The terlipressin dose was 100 μg/kg.
Data were evaluated as change […] from baseline.

[3] = test system: methionine/choline-deficient (MCD) diet rats; assay: ΔPP in methionine/choline-deficient (MCD) diet rats; assay type: in vivo, rat; details: 100 μg/kg, IA, MCD diet rats
[4] = test system: mean arterial pressure (MAP); assay: Telemetry: ΔMAP in cynomolgus monkeys, Compound 1 (SC) versus terlipressin (IV); assay type: in vivo, cynomolgus monkey
Protocol: The in-life portion of the study was performed over multiple dosing sessions using six non-naive adult male cynomolgus monkeys. Animals were previously (3-4 weeks before study start) instrumented with indwelling pressure telemetry devices and trained to be restrained in chairs. Animals had access to food and drinking water ad libitum.
Stock solutions were diluted in saline on the day of administration. Animals with indwelling pressure telemetry devices were trained to be restrained in chairs for 8-h periods.
On the day of administration, animals were restrained, and telemetric measurements were collected continuously starting ≥2 h before administration. Baseline values of arterial pressure (diastolic and systolic), heart rate, and body temperature were obtained.
The data reported herein were collected over 19 dosing sessions of four animals each, using a total of six monkeys. Animals were repeat dosed in a crossover design with at least one animal receiving vehicle for each round; the animal receiving vehicle was varied between rounds. A 48- to 72-h washout period was used between dosing sessions. Animals were observed by camera for ~1 h before dosing (covering the baseline period) and up to 3 h after dosing.

## NC(=O)CC[C@@H]1NC(=O)[C@H](Cc2ccccc2)NC(=O)[C@H](Cc2ccc(O)cc2)NC(=O)[C@@H](N)CSSC[C@@H](C(=O)N2CCC[C@H]2C(=O)N[C@@H](CCCN=C(N)N)C(=O)NCC(N)=O)NC(=O)[C@H](CC(N)=O)NC1=O [AVP, arginine vasopressin, reference compound]
Skin blood flow (SBF)
  SBF ED50: 12.6 pmol/kg/min
  decrease in skin blood flow, approximate maximum: about 90%
  greatest percent change from baseline in skin flow: −89.5%
rV2 receptor
  Emax: 98%
Blood lactate; 3 pmoL/kg/min IV
  blood lactate concentration: 1.34 mM
Blood lactate; 600 pmoL/kg/min IV
  blood lactate concentration: 4.27 mM
Blood lactate; IV
  increase in blood lactate levels: ≥ 2 fold
Blood lactate; IV, up to maximum dose tested
  effect on blood lactate concentration: significantly elevated
rOTR
  Emax: 82%

## NCCCC[C@H](NC(=O)[C@@H]1CCCN1C(=O)[C@@H]1CSSC[C@H](N)C(=O)N[C@@H](Cc2ccc(O)cc2)C(=O)N[C@@H](Cc2ccccc2)C(=O)N[C@@H](CCC(N)=O)C(=O)N[C@@H](CC(N)=O)C(=O)N1)C(=O)NCC(N)=O [Lysine vasopressin (LVP), Lysine vasopressin]
[1]; V1a, V1b, and V2 receptors
  receptor agonism type: full agonist

## NCCCC[C@H](NC(=O)[C@@H]1CCCN1C(=O)[C@@H]1CSSC[C@H](NC(=O)CNC(=O)CNC(=O)CN)C(=O)N[C@@H](Cc2ccc(O)cc2)C(=O)N[C@@H](Cc2ccccc2)C(=O)N[C@@H](CCC(N)=O)C(=O)N[C@@H](CC(N)=O)C(=O)N1)C(=O)NCC(N)=O [Terlipressin, reference compound] (H-GGGCYFQNCPKG-NH2; disulfide 4-9)
[1]; gastrointestinal disorders, sepsis, respiratory failure
  serious adverse events: associated with serious adverse events
[1]; non-selective full agonist, continuous i.v. infusion
  effect on ascites formation: reduced ascites formation
[1]; plus albumin, HRS-AKI, versus placebo
  short-term mortality: reduces short-term mortality
[2]; 0 min
  Δ MAP (mean): 0.0 mmHg
[2]; 1 min
  Δ MAP (mean): 6.1 mmHg
[2]; 10 min
  Δ MAP (mean): 32.0 mmHg
[2]; 90 min
  Δ MAP (mean): 5.2 mmHg
[2]; intra-arterial, FIG. 34
  rapid increase in MAP, up to: about 35 mmHg
[3]; 0 min
  Δ PP (mean): 0.0 mmHg
[3]; 1 min
  Δ PP (mean): −1.5 mmHg
[3]; 2 min
  Δ PP (mean): −2.1 mmHg
[3]; 3 min
  Δ PP (mean): −2.3 mmHg
[3]; 5 min
  Δ PP (mean): −2.4 mmHg
[3]; 7 min
  Δ PP (mean): −2.5 mmHg
[3]; 10 min
  Δ PP (mean): −2.4 mmHg
[3]; 15 min
  Δ PP (mean): −2.5 mmHg
[3]; 20 min
  Δ PP (mean): −2.6 mmHg
[3]; 30 min
  Δ PP (mean): −2.5 mmHg
[3]; 60 min
  Δ PP (mean): −2.8 mmHg
[3]; 90 min
  Δ PP (mean): −0.8 mmHg
[4]; IV 0.03 mg/kg
  average increase in MAP, 30 min to 5 h: 6.0 mmHg
[4]; IV 0.03 mg/kg (vehicle 22.2)
  maximum MAP values (increase from baseline): 29.6±3.6 mmHg
[4]; IV 0.09 mg/kg
  average increase in MAP, 30 min to 5 h: 5.8 mmHg
[4]; IV 0.09 mg/kg (vehicle 22.2)
  maximum MAP values (increase from baseline): 29.9±6.2 mmHg
[4]; IV 0.17 mg/kg
  average increase in MAP, 30 min to 5 h: 14.6 mmHg
[4]; IV 0.17 mg/kg (vehicle 22.2)
  maximum MAP values (increase from baseline): 50.8±5.6 mmHg
[4]; IV 0.34 mg/kg
  average increase in MAP, 30 min to 5 h: 14.7 mmHg
[4]; IV 0.34 mg/kg (vehicle 22.2)
  maximum MAP values (increase from baseline): 41.2±7.5 mmHg
[4]; IV, all groups
  time of maximum ΔMAP: 5 to 30 min
  ΔMAP by 150 min: negligible
